Source: patent publication US6841577B2, “Pesticidal activity of plant essential oils and their constituents” (Ecosmart Technologies, Inc., priority 1999, dated 2005)
Where two headings read alike, the source gives them in different places.

Key:
[1] = tested on: heart of American cockroach (octopamine receptors); experiment: Heartbeat after application to thoracic segment; format: in vivo; settings: mean ±SD of three roaches; for Heart beat/30 sec 30 min after treatment: 300 μg applied to thoracic segment; for Heart beat/30 sec before treatment: baseline of the same roaches
Method: To further establish the effect of the purified naturally occurring plant essential oils and/or their constituents on the American cockroach, a 300 μg amount of the chemical was applied to the thoracic segment of an intact and alive American cockroach. The heart beats/30 seconds was measured. The heart of the cockroach is known to have a high concentration of octopamine receptors and the heart beat is considered an important measurement to indicate the effect of the applied chemicals to the octopamine receptors.

American cockroach [2] = experiment: Cross walk jar test on pre-treated surface; format: in vivo; settings: for pesticidal activity against cockroaches, in words: in vivo
Method: In the test, a known amount of the test material was dissolved in a known volume of acetone and applied to small jars and all inner bottom surfaces were covered. The bottom surface of each jar is approximately 250 cm^2. One hour after the acetone had completely evaporated, five American cockroaches were introduced to each jar. Control jars were treated exactly as above but with the known amount of acetone only.
The results of the “cross walk” jar tests are in Table 8 in which the “4-blend” was dispersed as an aerosol and a dust in the jar.
In this test, the acetone solution of the test material was placed in the jar and the roach inserted into the jar after the acetone had evaporated.
Mortality was measured 24 hours after exposure.
The “4-blend” and the individual constituents of the “4-blend” were tested using 10 cockroaches for each “cross walk” treatment. In addition, pyrethrins were tested separately and mixed with the various components.
A concentration of 100 mg/jar was used for each individual alone. In the co-treatment experiment without pyrethrins, 20 mg/jar for each chemical was used. In the cotreatment experiment with pyrethrins, 20 mg/jar for the naturally occurring plant material was used. Pyrethrins was used at 2 mg/jar. […] It was noted above that the mortality is dependent upon concentration. […] Some synergism is found between pyrethrins and either α-terpineol or benzyl alcohol.

[3] = tested on: 2nd instar green peach aphid nymphs; experiment: Cabbage leaf disc bioassay; format: in vivo; settings: for activity on green peach aphid nymphs, in words: 1:200 dilution; for Percentage of aphids Walking (off disc) / Percentage of aphids Dead / Percentage of aphids Feeding: n = 250
Method: A bioassay similar to that for S. litura larvae was used for additional larvae. Cabbage leaf discs were dipped in emulsified aqueous solutions, diluted 1:200 in water, on which 2nd instar green peach aphid nymphs were placed. For each treatment there was 10 aphids per disc with 5 replicates; each experiment was replicated in time (successive days) from 3-5 times. After 24 hours, aphids were reported as being (1) on the leaf disc and feeding; (2) alive, but walking off the disc; or (3) dead. In the field, aphids which cease feeding and abandon a host plant are very unlikely to survive.

[4] = tested on: octopamine receptor sites; experiment: 3H-OA binding to ventral nerve cord / synaptosomal membrane protein; design: species or system American cockroach (Periplaneta americana); settings: for classification with respect to octopamine receptor sites (OAR): based on the binding data of Tables 1-3
Method: Different concentrations of unlabeled octopamine (OA) (20, 30, 40, 50, 60, 100 ng) were tested on the binding activity as a positive control. Test chemicals were dissolved in acetone before the assay. Different concentrations of the test chemicals were added directly to the protein preparation from ventral nerve cord. The same amount of solvent (1 μl 0.1%) were added to the control samples. All assays with test chemicals were run in the presence and absence of 50 ng OA. All chemicals were added to the protein extract 20 min prior the addition of radio labeled ^3H-OA(100,000 cpm/sample). After 30 min at 24° C. of the addition of ^3H-OA, the reaction was stopped by the addition of ice-cold Tris buffer, and the samples were filtered through GF/C membrane using water vacuum. After two washes each with 5 ml Tris buffer, the membrane was removed, air dried and the radioactivity was counted in 4 ml liquid scintillation solution. The specific binding was calculated as the difference between the values in the presence and absence of unlabeled OA. All data are calculated as the mean±standard deviation of 5 assays.
Additional tests were conducted on radio labeled octopamine using other purified naturally occurring materials as given in Tables 2 and 3.

larvae = experiment: Feeding deterrence of carvacrol; format: in vivo; settings: on doubling the concentration
Excerpt: FIG. 6 is a graph of the feeding deterrence of carvacrol vs. larvae.
The 5-blend can be considered as a relatively broad spectrum pesticide. […] The effect of concentration of the pesticide is shown in […] where a doubling in the concentration of carvacrol produces a 3-4 fold increase in deterrence of feeding.

[5] = tested on: 3rd instar Asian armyworms (Spodoptera litura); settings: for Mortality (%): control 0
Method: Additional synergistic testing was conducted on 3rd instar Asian armyworms (Spodoptera litura). […] The number of replicates is given as “n”.

American cockroach [6] = experiment: Lethal effect of injected test chemicals; format: in vivo
Method: Further studies were conducted to determine the LD 50 of purified naturally occurring plant essential oils and/or their constituents. […] Ten roaches per dose were used. Another group of ten roaches received the same volume of vehicle only (0.5 μl) and used as a control group. Mortality was recorded 24, 48, and 72 hours after exposure.

[7] = 500 ng/ml, Table 3, solvent control 1385 ± 101
[8] = 500 μg/roach injected into thoracic and abdominal segments, 24 hr., dead/10
[9] = 500 μg/roach injected, 48 hr., dead/10
[10] = 500 μg/roach injected, 72 hr., dead/10, control 1/10
[11] = 300 ng test chemical, Table 1, solvent control 1280 ± 259
[12] = 500 ng test chemical, Table 1, solvent control 1280 ± 259
[13] = 700 ng test chemical, Table 1, solvent control 1280 ± 259
[14] = 1000 ng test chemical, Table 1, solvent control 1280 ± 259
[15] = 1500 ng test chemical, Table 1, solvent control 1280 ± 259

SMILES: CC(=O)OCc1ccccc1 [Benzyl Acetate]
- Heart beat/30 sec 30 min after treatment [1]: 42 ± 1 beat/30 sec
- Heart beat/30 sec before treatment [1]: 45 ± 2 beat/30 sec

SMILES: OCc1ccccc1 [Benzyl Alcohol]
- Heart beat/30 sec 30 min after treatment [1]: 39 ± 2 beat/30 sec
- Heart beat/30 sec before treatment [1]: 45 ± 3 beat/30 sec
- mortality at 100 mg (American cockroach [2]; Periplaneta americana, 24 h): 0%
- mortality at 100 mg (American cockroach [2]; Periplaneta americana, 48 h): 20%
- mortality at 100 mg (American cockroach [2]; Periplaneta americana, 72 h): 40%
- mortality at 10 mg (American cockroach [2]; Periplaneta americana, inhaled or nasal): 100%
- activity on green peach aphid nymphs, in words [3]: relatively inactive
- Percentage of aphids Walking (off disc) ([3]; diluted 1:200 in water, after 24 hours, Table 16, control 23.4): 22.3%
- Percentage of aphids Dead ([3]; diluted 1:200 in water, after 24 hours, Table 16, control 24.8): 32.8%
- Percentage of aphids Feeding ([3]; diluted 1:200 in water, after 24 hours, Table 16, control 51.7): 44.5%

SMILES: Cc1ccc(C(C)C)cc1O [Carvacol, Carvacrol]
- agonist/antagonist note to 3H-OA binding ([4]; 1000 ng/ml): agonist
- dpm 3H-OA/500 μg protein ([4]; 1000 ng/ml, Table 2, solvent control 930 ± 89): 2366 ± 149 dpm 3H-OA/500 μg protein
- classification with respect to octopamine receptor sites (OAR) [4]: OAR Agonists
- mortality at 10 mg (American cockroach [2]; Periplaneta americana, 24 h): 0%
- mortality at 20 mg (American cockroach [2]; Periplaneta americana, 24 h): 20%
- mortality at 40 mg (American cockroach [2]; Periplaneta americana, 24 h): 50%
- mortality at 50 mg (American cockroach [2]; Periplaneta americana, 24 h): 80%
- mortality at 100 mg (American cockroach [2]; Periplaneta americana, 24 h): 100%
- pesticidal activity against cockroaches, in words (American cockroach [2]): high pesticidal activity
- increase in deterrence of feeding (larvae): 3-4 fold

SMILES: OC/C=C/c1ccccc1 [Cinnamic Alcohol]
- Heart beat/30 sec 30 min after treatment [1]: 54 ± 3 beat/30 sec
- Heart beat/30 sec before treatment [1]: 52 ± 2 beat/30 sec

SMILES: CCC(=O)OCCc1ccccc1 [Phenethyl propionate]
- activity/binding at octopamine receptor sites, in words [4]: antagonists which are most strongly bound
- agonist/antagonist note to 3H-OA binding ([4]; 500 ng/ml): antagonist
- cpm 3H-OA/500 μg protein [4, 7]: 0173 ± 022 cpm 3H-OA/500 μg protein
- classification with respect to octopamine receptor sites (OAR) [4]: extremely high OAR antagonists
- mortality at 10 mg (American cockroach [2]; Periplaneta americana, 24 h): 30%
- mortality at 20 mg (American cockroach [2]; Periplaneta americana, 24 h): 40%
- mortality at 30 mg (American cockroach [2]; Periplaneta americana, 24 h): 60%
- mortality at 40 mg (American cockroach [2]; Periplaneta americana, 24 h): 90%
- mortality at 50 mg (American cockroach [2]; Periplaneta americana, 24 h): 100%
- mortality at 100 mg (American cockroach [2]; Periplaneta americana, 24 h): 100%
- pesticidal activity against cockroaches, in words (American cockroach [2]): high pesticidal activity
- activity on Asian armyworms, in words ([5]; in vivo): relatively low activity
- activity on green peach aphid nymphs, in words [3]: essentially inactive
- Percentage of aphids Dead ([3]; Table 17, control 8.7): 13.3%
- Percentage of aphids Walking (off disc) ([3]; Table 17, control 15.3): 25.3%
- Percentage of aphids Feeding ([3]; Table 17, control 76.0): 62.0%

SMILES: Cc1ccc(C(C)C)c(O)c1 [Thymol]
- cpm 3H-OA/500 μg protein [4, 7]: 1310 ± 91 cpm 3H-OA/500 μg protein
- cpm 3H-OA/500 μg protein ([4]; 1000 ng/ml, Table 3, solvent control 1915 ± 110): 806 ± 71 cpm 3H-OA/500 μg protein
- classification with respect to octopamine receptor sites (OAR) [4]: Non-OAR Specific Toxicants
- mortality at 40 mg (American cockroach [2]; Periplaneta americana, 24 h): 80%
- mortality at 100 mg (American cockroach [2]; Periplaneta americana, 24 h): 100%
- Mortality (%) ([5]; diluted 1:400 with water, n = 50, Table 12): 98%
- Mortality (%) ([5]; dilution rate 1:500, n = 150, Table 14 right): 24.5%
- Mortality (%) ([5]; n = 50, Table 13 right, 1:500 printed for Thymol only): 29%

SMILES: OCCc1ccccc1 [phenethyl alcohol]
- Mortality (American cockroach [6]; [8]): 0/10
- Mortality (American cockroach [6]; [9]): 0/10
- Mortality (American cockroach [6]; [10]): 0/10
- Heart beat/30 sec 30 min after treatment [1]: 29 ± 2 beat/30 sec
- Heart beat/30 sec before treatment [1]: 47 ± 2 beat/30 sec
- mortality at 100 mg (American cockroach [2]; Periplaneta americana, 24 h): 0%
- mortality at 100 mg (American cockroach [2]; Periplaneta americana, 48 h): 0%
- mortality at 100 mg (American cockroach [2]; Periplaneta americana, 72 h): 0%

SMILES: CC(C)=C1CC[C@@H](C)CC1=O [pulegone]
- cpm 3H-OA/500 μg protein [4, 11]: 936 ± 33 cpm 3H-OA/500 μg protein
- cpm 3H-OA/500 μg protein [4, 12]: 778 ± 22 cpm 3H-OA/500 μg protein
- cpm 3H-OA/500 μg protein [4, 13]: 662 ± 51 cpm 3H-OA/500 μg protein
- cpm 3H-OA/500 μg protein [4, 14]: 435 ± 22 cpm 3H-OA/500 μg protein
- cpm 3H-OA/500 μg protein [4, 15]: 217 ± 18 cpm 3H-OA/500 μg protein
- classification with respect to octopamine receptor sites (OAR) [4]: high OAR antagonists
- Mortality (American cockroach [6]; 50 μg injected through the end of the abdominal segment, 48 hr. after treatment): 20%
- Mortality 24 hr after treatment (American cockroach [6]; 300 μg, dead/10): 3/10
- Mortality 24 hr after treatment (American cockroach [6]; 400 μg, dead/10): 5/10
- Mortality (American cockroach [6]; [8]): 6/10
- Mortality (American cockroach [6]; [9]): 6/10
- Mortality (American cockroach [6]; [10]): 7/10
- Mortality 24 hr after treatment (American cockroach [6]; 500 μg, dead/10): 5/10
- Mortality 24 hr after treatment (American cockroach [6]; 600 μg, dead/10): 8/10
- Mortality 24 hr after treatment (American cockroach [6]; 700 μg, dead/10): 10/10
- mortality at 10 mg (American cockroach [2]; Periplaneta americana, 24 h): 100%
- pesticidal activity against cockroaches, in words (American cockroach [2]): high pesticidal activity

SMILES: CC1=CCC(C(C)(C)O)CC1 (stereo not drawn) [α-terpineol]
- cpm 3H-OA/500 μg protein [4, 11]: 1213 ± 110 cpm 3H-OA/500 μg protein
- cpm 3H-OA/500 μg protein [4, 12]: 1031 ± 24 cpm 3H-OA/500 μg protein
- cpm 3H-OA/500 μg protein [4, 13]: 910 ± 88 cpm 3H-OA/500 μg protein
- cpm 3H-OA/500 μg protein [4, 14]: 700 ± 88 cpm 3H-OA/500 μg protein
- cpm 3H-OA/500 μg protein [4, 15]: 565 ± 47 cpm 3H-OA/500 μg protein
- classification with respect to octopamine receptor sites (OAR) [4]: moderate OAR antagonists
- Heart beat/30 sec 30 min after treatment [1]: 32 ± 2 beat/30 sec
- Heart beat/30 sec before treatment [1]: 58 ± 4 beat/30 sec
- mortality at 100 mg (American cockroach [2]; Periplaneta americana, 24 h): 20%
- mortality at 100 mg (American cockroach [2]; Periplaneta americana, 48 h): 30%
- mortality at 100 mg (American cockroach [2]; Periplaneta americana, 72 h): 60%
